Assay results as given in PubChem BioAssay (NCI).
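How tested: cells in 96-well plates exposed to compound for 48 hours at five concentrations. Definition used: TGI = concentration required for complete inhibition of growth.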

Columns and labels:
Experiment in all cases: growth of human tumour cells (NCI), 48 h
786-0 renal = tested on: 786-0 renal
CCRF-CEM leukemia = tested on: CCRF-CEM leukemia
DLD-1 colon = tested on: DLD-1 colon
EKVX NSCLC = tested on: EKVX NSCLC
HCC-2998 colon = tested on: HCC-2998 colon
HCT-15 colon = tested on: HCT-15 colon
K-562 leukemia = tested on: K-562 leukemia
LOX IMVI melanoma = tested on: LOX IMVI melanoma
M14 melanoma = tested on: M14 melanoma
NCI-H226 lung = tested on: NCI-H226 lung
NCI-H23 lung = tested on: NCI-H23 lung
OVCAR-3 ovarian = tested on: OVCAR-3 ovarian
OVCAR-5 ovarian = tested on: OVCAR-5 ovarian
TK-10 renal = tested on: TK-10 renal
UACC-257 melanoma = tested on: UACC-257 melanoma

## COC1=CC(=O)C2C(C1=O)C(c1ccc(Cl)cc1)[C@@H]2C (stereo not given in full)
786-0 renal
  TGI: 57.2 µM
CCRF-CEM leukemia
  TGI: 93.2 µM
DLD-1 colon
  TGI: 70.5 µM
EKVX NSCLC
  TGI: 71.4 µM
HCC-2998 colon
  TGI: > 100 µM
HCT-15 colon
  TGI: 31.9 µM
K-562 leukemia
  TGI: > 100 µM
LOX IMVI melanoma
  TGI: > 100 µM
M14 melanoma
  TGI: 71.7 µM
NCI-H226 lung
  TGI: 81.8 µM
NCI-H23 lung
  TGI: > 100 µM
OVCAR-3 ovarian
  TGI: > 100 µM
OVCAR-5 ovarian
  TGI: > 100 µM
TK-10 renal
  TGI: > 100 µM
UACC-257 melanoma
  TGI: > 100 µM
